Measured values published in patent publication US20080279912A1, “Use of Cis-Epoxyeicosatrienoic Acids And Inhibitors of Soluble Epoxide Hydrolase to Alleviate Eye Disorders” (Regents of the University of California Office of …, priority 2005, published 2008).

Columns and labels:
sEH = target: T1, sEH (Homo sapiens, UniProt P34913); assay: Inhibition of sEH (standard assays, stated in text); format: biochemical
T1 sequence (P34913 1-555): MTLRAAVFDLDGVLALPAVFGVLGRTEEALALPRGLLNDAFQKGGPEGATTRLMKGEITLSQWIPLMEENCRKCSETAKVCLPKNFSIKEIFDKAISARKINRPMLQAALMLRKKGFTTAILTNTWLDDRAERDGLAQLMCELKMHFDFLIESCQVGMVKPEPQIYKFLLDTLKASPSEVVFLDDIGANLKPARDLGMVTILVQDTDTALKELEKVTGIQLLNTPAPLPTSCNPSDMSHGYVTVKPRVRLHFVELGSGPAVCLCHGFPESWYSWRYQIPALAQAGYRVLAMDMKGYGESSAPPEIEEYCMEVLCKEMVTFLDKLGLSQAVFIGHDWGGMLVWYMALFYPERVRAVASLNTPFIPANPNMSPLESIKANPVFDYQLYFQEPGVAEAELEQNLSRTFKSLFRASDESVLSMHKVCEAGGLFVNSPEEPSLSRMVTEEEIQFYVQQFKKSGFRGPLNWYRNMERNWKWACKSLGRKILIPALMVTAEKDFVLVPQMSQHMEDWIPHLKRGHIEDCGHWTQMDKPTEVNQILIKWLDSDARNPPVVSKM
Text: Derivatives of urea are transition state mimetics that form a preferred group of sEH inhibitors. […] Any particular urea derivative or other compound can be easily tested for its ability to inhibit sEH by standard assays, such as those discussed herein. The production and testing of urea and carbamate derivatives as sEH inhibitors is set forth in detail in, for example, Morisseau et al., Proc Natl Acad Sci (USA) 96:8849-8854 (1999).
Any of a number of standard assays for determining epoxide hydrolase activity can be used to determine inhibition of sEH. […] Suitable in vitro assays are described in Zeldin et al., J. Biol. Chem. 268:6402-6407 (1993). Suitable in vivo assays are described in Zeldin et al., Arch Biochem Biophys 330:87-96 (1996).

Metabolic stability = format: in vitro ADME
[1] = tested on: New Zealand white rabbits; assay: Intraocular pressure in rabbits after treatment of the eye (tonometer); format: in vivo; details: one rabbit per treatment, 50 μL/eye; for Change in intraocular pressure (IOP treated eye minus control eye) after topical instillation: 100 μg/mL in artificial tears with 1% DMSO; for Time after treatment at which IOP decline appeared: 100 μg/mL, topical
Description: Female New Zealand white rabbits (2.7-3.0 kg) were obtained from Harlan (Indianapolis, Ind.). On test day, rabbits were lightly tranquilized with torbugesic/acepromazine at 0.04 mg/kg, administered subcutaneously. Ten to twenty minutes after administration of the tranquilizer, a drop of proparacaine hydrochloride (0.5% ophthalmic solution) was instilled in each eye to numb the eye prior to taking the intraocular pressure measurement. After 2-5 min, intraocular pressure in each eye (right and left) was measured using a tonometer (Tono-Pen®, Mentor Opthalmics, Santa Barbara, Calif.). Measurements were taken every 3-5 minutes to obtain baseline pressure. Then various treatments were applied (right eye) and after 3-5 minutes measurements were again taken every 3-5 minutes. Data are expressed as the change in intraocular pressure (“IOP”) in the treated eye compared to the control eye (IOP in treated eye—IOP in control eye). […] DMSO is also known to aid penetration through the skin. For a treatment to be effective, it must penetrate the cornea. Later treatments utilized subconjunctival injection. This delivers the compound below the conjunctiva where it is rapidly absorbed, avoiding issues of absorption.
Treatments: Each rabbit was administered one of the following treatments: (1). Epoxyeicosatrienoic acids (EETs) only, 100 μg/mL carboxylmethyl cellulose artificial tears containing 1% dimethyl sulfoxide (DMSO), 50 μL/eye (2). […] EETs only, 10 μg/mL carboxylmethyl cellulose artificial tears containing 1% DMSO, 0.1 cc/eye administered subconjunctivally (4).
Compounds used for the topical treatment of eye diseases become clinically useful only if they can penetrate the intact epithelium of the cornea and conjunctiva and achieve clinically useful concentrations within the eye. Thus for these trials we used both instillation by drops and by subconjunctival injections.

[2] = Stability of EETs on storage, handling and administration; format: physicochemical; details: if not exposed to acidic conditions or to sEH

| Stability [2] | Compound | Activity as an inhibitor of sEH (sEH) | Metabolic stability (Metabolic stability) | Change in intraocular pressure (IOP treated eye minus control eye) after topical instillation [1] | Time after treatment at which IOP decline appeared [1] |
| --- | --- | --- | --- | --- | --- |
| – | CCCCCCCCCCCCNC(=O)NC12CC3CC(CC(C3)C1)C2 [ADU, N-Adamantyl-N′-dodecyl urea] | particularly high activity | metabolically stable | – | – |
| – | O=C(O)CCCCCCCCCCCNC(=O)NC12CC3CC(CC(C3)C1)C2 [AUDA, 12-(3-Adamantan-1-yl-ureido)dodecanoic acid] | – | – | distinct decline in pressure | about 20 minutes |
| stable | cis-Epoxyeicosatrienoic acids [EETs] | – | – | definite declining trend | about 45 minutes |
